For test [1], the target named is ALK tyrosine kinase receptor (Homo sapiens) (UniProt Q9UM73). Briefly: Binding affinity to wild-type human partial length ALK (I1088 to E1409 residues) expressed in mammalian expression system assessed as residual binding level at 10 uM by Kinomescan method relative to control.
Test [2] deals with Tyrosine-protein kinase receptor UFO (Homo sapiens) (UniProt P30530). Briefly: Binding affinity to wild-type human partial length AXL (R497 to Y821 residues) expressed in bacterial expression system assessed as residual binding level at 10 uM by Kinomescan method relative to control.
The target of test [3] is Calcium/calmodulin-dependent protein kinase type II subunit beta (Homo sapiens) (UniProt Q13554). Briefly: Binding affinity to wild-type human partial length CAMK2B (M1 to Q380 residues) expressed in bacterial expression system assessed as residual binding level at 10 uM by Kinomescan method relative to control.
For test [4], the target named is Cyclin-dependent kinase 9 (Homo sapiens) (UniProt P50750). Briefly: Binding affinity to wild-type human full length CDK9 (M1 to F372 residues) expressed in bacterial expression system assessed as residual binding level at 10 uM by Kinomescan method relative to control.
In test [5] the target is Macrophage colony-stimulating factor 1 receptor (Homo sapiens) (UniProt P07333). Briefly: Binding affinity to wild-type human partial length autoinhibited CSF1R (Y538 to S939 residues) expressed in mammalian expression system assessed as residual binding level at 10 uM by Kinomescan method relative to control.
In test [6] the target is Casein kinase II subunit alpha' (Homo sapiens) (UniProt P19784). Briefly: Binding affinity to wild-type human full length CSNK2A2 (M1 to R350 residues) expressed in mammalian expression system assessed as residual binding level at 10 uM by Kinomescan method relative to control.
In test [7] the target is Serine/threonine-protein kinase DCLK3 (Homo sapiens) (UniProt Q9C098). Briefly: Binding affinity to wild-type human partial length DCAMKL3 (E140 to V628 residues) expressed in bacterial expression system assessed as residual binding level at 10 uM by Kinomescan method relative to control.
Test [8] has as its target Ephrin type-A receptor 7 (Homo sapiens) (UniProt Q15375). Briefly: Binding affinity to wild-type human partial length EPHA7 (Y608 to S912 residues) expressed in bacterial expression system assessed as residual binding level at 10 uM by Kinomescan method relative to control.
In test [9] the test system is Receptor-type tyrosine-protein kinase FLT3 (Homo sapiens), P36888 [R834Q]. Briefly: Binding affinity to human partial length FLT3 R834Q mutant (V592 to Y969 residues) expressed in mammalian expression system assessed as residual binding level at 10 uM by Kinomescan method relative to control.
The target of test [10] is Receptor-type tyrosine-protein kinase FLT3 (Homo sapiens) (UniProt P36888). Briefly: Binding affinity to wild-type human partial length autoinhibited FLT3 (H564 to Y969 residues) expressed in mammalian expression system assessed as residual binding level at 10 uM by Kinomescan method relative to control.
Test [11] addresses Mitogen-activated protein kinase 8 (Homo sapiens) (UniProt P45983). Briefly: Binding affinity to wild-type human full length JNK1 (M1 to Q384 residues) expressed in mammalian expression system assessed as residual binding level at 10 uM by Kinomescan method relative to control.
Test [12] relates to Mast/stem cell growth factor receptor Kit (Homo sapiens), P10721 [UNDEFINED MUTATION]. Briefly: Binding affinity to human partial length KIT V559D/V654 double mutant (Y545 to D952 residues) expressed in bacterial expression system assessed as residual binding level at 10 uM by Kinomescan method relative to control.
For test [13], the target named is Tyrosine-protein kinase Lck (Homo sapiens) (UniProt P06239). Briefly: Binding affinity to wild-type human partial length LCK (R207 to P509 residues) expressed in bacterial expression system assessed as residual binding level at 10 uM by Kinomescan method relative to control.
Test [14] has as its target Microtubule-associated serine/threonine-protein kinase 1 (Homo sapiens) (UniProt Q9Y2H9). Briefly: Binding affinity to wild-type human partial length MAST1 (S346 to V730 residues) expressed in mammalian expression system assessed as residual binding level at 10 uM by Kinomescan method relative to control.
For test [15], the target named is Dual specificity mitogen-activated protein kinase kinase 5 (Homo sapiens) (UniProt Q13163). Briefly: Binding affinity to wild-type human partial length MEK5 (L98 to P448 residues) expressed in mammalian expression system assessed as residual binding level at 10 uM by Kinomescan method relative to control.
The target of test [16] is Serine/threonine-protein kinase Nek6 (Homo sapiens) (UniProt Q9HC98). Briefly: Binding affinity to wild-type human full length NEK6 (M8 to T313 residues) expressed in bacterial expression system assessed as residual binding level at 10 uM by Kinomescan method relative to control.
Test [17] concerns the target Cyclin-dependent kinase 15 (Homo sapiens) (UniProt Q96Q40). Briefly: Binding affinity to wild-type human full length PFTAIRE2 (M1 to W384 residues) expressed in bacterial expression system assessed as residual binding level at 10 uM by Kinomescan method relative to control.
In test [18] the target is Phosphatidylinositol 4-phosphate 5-kinase type-1 gamma (Homo sapiens) (UniProt O60331). Briefly: Binding affinity to wild-type human partial length PIP5K1C (M1 to T668 residues) expressed in mammalian expression system assessed as residual binding level at 10 uM by Kinomescan method relative to control.
In test [19] the target is Serine/threonine-protein kinase PLK2 (Homo sapiens) (UniProt Q9NYY3). Briefly: Binding affinity to wild-type human partial length PLK2 (H58 to F354 residues) expressed in mammalian expression system assessed as residual binding level at 10 uM by Kinomescan method relative to control.
Test [20] concerns the target Receptor-interacting serine/threonine-protein kinase 4 (Homo sapiens) (UniProt P57078). Briefly: Binding affinity to wild-type human partial length RIPK4 (M1 to V303 residues) expressed in mammalian expression system assessed as residual binding level at 10 uM by Kinomescan method relative to control.
The target in test [21] is Ribosomal protein S6 kinase alpha-1 (Homo sapiens) (UniProt Q15418). Briefly: Binding affinity to wild-type human partial length C- terminal RSK1 kinase domain 2 (P360 to L681 residues) expressed in bacterial expression system assessed as residual binding level at 10 uM by Kinomescan method relative to control.
Test [22] addresses Serine/threonine-protein kinase 35 (Homo sapiens) (UniProt Q8TDR2). Briefly: Binding affinity to wild-type human partial length STK35 (G182 to A534 residues) expressed in bacterial expression system assessed as residual binding level at 10 uM by Kinomescan method relative to control.
Test [23] addresses Serine/threonine-protein kinase 32C (Homo sapiens) (UniProt Q86UX6). Briefly: Binding affinity to wild-type human partial length YANK3 (M68 to G486 residues) expressed in bacterial expression system assessed as residual binding level at 10 uM by Kinomescan method relative to control.
Test [24] deals with THP-1. Briefly: Inhibition of Staphylococcus aureus-induced pyroptosis in human THP1 cells at 10 uM preincubated for 1 hr followed by bacterial infection and measured after 2 hrs by INT dye based LDH assay. The class given is functional, cell-based.

Each structure is given as a SMILES string. Active and inactive are the calls of the source. The rule behind the calls is not given here.

Regarding `CC(C)N1C(=O)C(NCCCN(C)C)=C(c2cn(C)c3ccccc23)C1=O.Cl`, the Activity in test [1] came out at 100%; in test [2], 99%; in test [3], 100%; in test [4], 100%; in test [5], 87%; in [6], 78%. The Activity was determined as 100% in test [7]; 93% in [8]; 100% in [9]; 88% in test [10]; 91% in [11]; 95% in test [12]. Further, the Activity in [13] was 92%; in [14] it was 87%; in test [15] it was 77%; in test [16], 100%; in [17] it was 99%; in [18] it was 96%. In addition, the Activity in [19] stood at 97%; in [20], 100%; in [21] it was 100%; in test [22], 100%; in [23] it was 98%. For the same compound, in [24], the inhibition entry is “inactive”.

Values taken from ChEMBL document CHEMBL4304811, “Development of a Water-Soluble Indolylmaleimide Derivative IM-93 Showing Dual Inhibition of Ferroptosis and NETosis” (ACS Med Chem Lett, 2019).
